This is an account of results in patent US9944646B2, “Bicyclic azaheterocyclobenzylamines as PI3K inhibitors” (Incyte Corporation, priority 2012, dated 2018).

One experiment deals with SUDHL-6 cells. Description: SUDHL-6 Cell Proliferation Assay (Example B3). Type of experiment: cell-based. The conditions noted are these: 3 days, Cell Titer-GLO. The protocol:
Example B3: SUDHL-6 Cell Proliferation Assay
SUDHL-6 cell line (diffuse large B cell lymphoma) was purchased from ATCC (Manassas, Va.) and maintained in the culture medium recommended (RPMI and 10% FBS). To measure the anti-proliferation activity of the compounds through ATP quantitation, the SUDHL-6 cells was plated with the culture medium (5000 cells/well/per 200 μl) into 96-well polystyrene clear black tissue culture plate (Greiner-bio-one through VWR, NJ) in the presence or absence of a concentration range of test compounds. After 3 days, Cell Titer-GLO Luminescent (Promega, Madison, Wis.) cell culture agent was added to each well for 10 minutes at room temperature to stabilize the luminescent signal. This determines the number of viable cells in culture based on quantitation of the ATP present, which signals the presence of metabolically active cells. Luminescence was measured with the TopCount 384 (Packard Bioscience through Perkin Elmer, Boston, Mass.). […] IC50 data for the Examples is presented in Table 4 determined by the assay of Example B3.

Another experiment addresses PI3Kδ (Homo sapiens (Human), UniProt O00329). The experiment is described as follows: PI3K Enzyme Assay (Example A2), [γ-33P]ATP filter plate. It is filed as biochemical. In short, it runs like this:
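Recombinant PI3Kδ at 2.9 nM with 50 µM PIP2 in MOPS pH 6.7, MgCl2, DTT, CHAPS, 0.5% DMSO; started with 1000 μM ATP including [γ-33P]ATP, 180 min at room temperature. Phosphorylated product captured on PVDF filter plates and scintillation-counted; IC50 from percent-control activity vs log concentration.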

What is called IC50 is the concentration that gives 50% inhibition. A higher IC50 goes with weaker potency.

Chain of PI3Kδ (O00329 whole entry): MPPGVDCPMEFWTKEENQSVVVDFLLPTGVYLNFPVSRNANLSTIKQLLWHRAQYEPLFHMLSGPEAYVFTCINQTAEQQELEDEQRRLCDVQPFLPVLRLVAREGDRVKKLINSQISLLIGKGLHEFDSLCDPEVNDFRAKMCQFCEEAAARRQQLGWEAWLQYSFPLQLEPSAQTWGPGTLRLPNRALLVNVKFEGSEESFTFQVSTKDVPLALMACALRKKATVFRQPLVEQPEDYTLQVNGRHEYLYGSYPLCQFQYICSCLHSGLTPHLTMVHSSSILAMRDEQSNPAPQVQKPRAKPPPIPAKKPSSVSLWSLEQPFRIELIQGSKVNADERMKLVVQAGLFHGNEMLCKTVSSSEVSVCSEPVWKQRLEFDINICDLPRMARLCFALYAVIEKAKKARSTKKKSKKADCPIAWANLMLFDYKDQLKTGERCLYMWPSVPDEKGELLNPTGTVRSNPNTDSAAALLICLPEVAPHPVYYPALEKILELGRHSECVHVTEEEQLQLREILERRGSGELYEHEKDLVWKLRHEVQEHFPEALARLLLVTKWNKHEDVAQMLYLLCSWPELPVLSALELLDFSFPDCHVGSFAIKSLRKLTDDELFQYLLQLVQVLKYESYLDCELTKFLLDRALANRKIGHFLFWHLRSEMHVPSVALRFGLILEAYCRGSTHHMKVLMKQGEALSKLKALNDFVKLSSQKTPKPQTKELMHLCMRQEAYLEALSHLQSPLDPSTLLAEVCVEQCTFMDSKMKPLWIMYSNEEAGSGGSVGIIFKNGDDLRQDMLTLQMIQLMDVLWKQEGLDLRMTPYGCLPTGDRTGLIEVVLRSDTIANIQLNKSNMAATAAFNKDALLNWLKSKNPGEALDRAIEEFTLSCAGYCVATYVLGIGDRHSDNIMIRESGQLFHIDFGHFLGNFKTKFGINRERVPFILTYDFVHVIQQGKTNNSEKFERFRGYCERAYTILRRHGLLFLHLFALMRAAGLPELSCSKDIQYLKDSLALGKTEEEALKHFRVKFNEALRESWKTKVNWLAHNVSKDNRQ
Chain of PI3Kδ (P27986 whole entry partner): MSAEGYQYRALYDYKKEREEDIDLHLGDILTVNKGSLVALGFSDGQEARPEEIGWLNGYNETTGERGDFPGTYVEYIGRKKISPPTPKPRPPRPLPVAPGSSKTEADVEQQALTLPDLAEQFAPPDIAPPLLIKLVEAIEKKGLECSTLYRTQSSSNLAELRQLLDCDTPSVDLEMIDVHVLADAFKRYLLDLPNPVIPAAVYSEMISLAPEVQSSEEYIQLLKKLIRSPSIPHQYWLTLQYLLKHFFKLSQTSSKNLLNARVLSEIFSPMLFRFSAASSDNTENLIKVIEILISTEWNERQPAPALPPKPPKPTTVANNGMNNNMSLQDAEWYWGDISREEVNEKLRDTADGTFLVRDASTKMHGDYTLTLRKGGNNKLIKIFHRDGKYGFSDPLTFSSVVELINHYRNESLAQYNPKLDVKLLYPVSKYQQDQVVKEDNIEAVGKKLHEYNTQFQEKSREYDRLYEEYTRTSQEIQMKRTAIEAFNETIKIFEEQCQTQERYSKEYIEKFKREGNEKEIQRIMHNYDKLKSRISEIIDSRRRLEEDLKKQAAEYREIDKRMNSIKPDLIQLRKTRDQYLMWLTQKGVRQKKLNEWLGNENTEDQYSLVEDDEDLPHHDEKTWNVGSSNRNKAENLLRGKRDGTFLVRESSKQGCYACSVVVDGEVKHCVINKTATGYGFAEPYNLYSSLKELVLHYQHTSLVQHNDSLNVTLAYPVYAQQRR

In the case of `CC(=O)N1CC(N2Cc3c(F)c(Cl)cc(C(C)n4nc(C)c5c(N)ncnc54)c3OC(C)C2)C1` (single isomer, unassigned) [Example 30, 1-{1-[4-(1-Acetylazetidin-3-yl)-7-chloro-6-fluoro-2-methyl-2,3,4,5-tetrahydro-1,4-benzoxazepin-9-yl]ethyl}-3-methyl-1H-pyrazolo[3,4-d]pyrimidin-4-amine], the values for the IC50 in the experiment on SUDHL-6 cells and at PI3Kδ were no more than 500 nM and no more than 100 nM, respectively.

Consider `Cc1nn(C(C)c2cc(Cl)c(C#N)c3c2OC(C)CN(CCO)C3)c2ncnc(N)c12` (single isomer, unassigned) [Example 63, 9-[1-(4-Amino-3-methyl-1H-pyrazolo[3,4-d]pyrimidin-1-yl)ethyl]-7-chloro-4-(2-hydroxyethyl)-2-methyl-2,3,4,5-tetrahydro-1,4-benzoxazepine-6-carbonitrile], for which the half-maximal inhibitory concentration (IC50) in the experiment on SUDHL-6 cells was no more than 500 nM; against PI3Kδ, no more than 100 nM.

Regarding `CC(=O)N1CC(N2Cc3c(F)c(Cl)cc(C(C)n4nc(C)c5c(N)ncnc54)c3OC(C)C2)C1` (single isomer, unassigned) [Example 32, 1-{1-[4-(1-Acetylazetidin-3-yl)-7-chloro-6-fluoro-2-methyl-2,3,4,5-tetrahydro-1,4-benzoxazepin-9-yl]ethyl}-3-methyl-1H-pyrazolo[3,4-d]pyrimidin-4-amine], the concentration for half-maximal inhibition (IC50) was no more than 500 nM in the experiment on SUDHL-6 cells and no more than 100 nM on PI3Kδ.
